The target of test [1] is Death-associated protein kinase 1 (Homo sapiens) (UniProt P53355).
Description: Binding affinity to DAPK1 (unknown origin) assessed as change in Gibbs free energy by ITC analysis
Test [2] has the same target. This is another data set of the same source.
Description: Binding affinity to DAPK1 (unknown origin) assessed as change in enthalpy by ITC analysis
Test [3] has the same target. The source holds these as a separate data set.
Description: Binding affinity to DAPK1 (unknown origin) assessed as change in entropy by ITC analysis

Death-associated protein kinase 1 (Homo sapiens), sequence (P53355 whole entry, looked up): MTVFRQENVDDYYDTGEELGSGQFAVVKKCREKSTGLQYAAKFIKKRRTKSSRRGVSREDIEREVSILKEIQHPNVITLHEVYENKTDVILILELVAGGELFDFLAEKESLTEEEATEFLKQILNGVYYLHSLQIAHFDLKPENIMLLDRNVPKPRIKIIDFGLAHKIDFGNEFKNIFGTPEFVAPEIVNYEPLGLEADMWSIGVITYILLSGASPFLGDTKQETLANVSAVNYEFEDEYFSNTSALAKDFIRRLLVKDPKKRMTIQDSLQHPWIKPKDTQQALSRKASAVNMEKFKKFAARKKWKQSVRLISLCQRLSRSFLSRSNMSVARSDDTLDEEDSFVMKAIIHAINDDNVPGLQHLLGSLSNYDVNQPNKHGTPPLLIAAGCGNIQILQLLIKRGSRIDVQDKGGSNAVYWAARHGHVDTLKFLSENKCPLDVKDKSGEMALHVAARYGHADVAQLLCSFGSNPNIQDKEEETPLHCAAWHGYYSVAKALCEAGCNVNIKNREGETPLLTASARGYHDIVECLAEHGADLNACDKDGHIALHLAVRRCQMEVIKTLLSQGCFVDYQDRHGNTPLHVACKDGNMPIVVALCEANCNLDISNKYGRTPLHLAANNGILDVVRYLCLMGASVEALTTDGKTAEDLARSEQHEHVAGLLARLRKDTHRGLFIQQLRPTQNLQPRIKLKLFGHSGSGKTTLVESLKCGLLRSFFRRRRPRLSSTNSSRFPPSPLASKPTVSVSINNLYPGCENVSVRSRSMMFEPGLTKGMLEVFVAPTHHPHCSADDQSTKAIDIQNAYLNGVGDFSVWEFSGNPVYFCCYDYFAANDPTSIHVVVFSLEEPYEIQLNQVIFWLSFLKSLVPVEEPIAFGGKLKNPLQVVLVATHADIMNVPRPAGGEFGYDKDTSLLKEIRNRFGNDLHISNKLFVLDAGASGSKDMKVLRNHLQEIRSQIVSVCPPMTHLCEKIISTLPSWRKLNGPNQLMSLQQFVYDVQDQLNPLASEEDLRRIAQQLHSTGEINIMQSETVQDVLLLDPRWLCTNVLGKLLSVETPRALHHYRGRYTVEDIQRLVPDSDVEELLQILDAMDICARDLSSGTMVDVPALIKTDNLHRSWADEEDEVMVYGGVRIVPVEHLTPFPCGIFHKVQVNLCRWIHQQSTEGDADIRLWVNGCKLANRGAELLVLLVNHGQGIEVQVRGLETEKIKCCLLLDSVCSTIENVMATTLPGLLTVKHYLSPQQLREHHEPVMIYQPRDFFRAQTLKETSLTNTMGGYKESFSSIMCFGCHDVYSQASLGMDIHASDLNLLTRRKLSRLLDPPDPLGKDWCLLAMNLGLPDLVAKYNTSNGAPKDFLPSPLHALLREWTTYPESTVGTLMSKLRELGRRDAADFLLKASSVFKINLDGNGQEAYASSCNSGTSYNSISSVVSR

Consider `O=C(/C=C/c1ccc(O)cc1)c1ccc(O)cc1O`, for which, in test [1], the deltaG was -7.66 kcal/mol. The deltaH in test [2] is -9.55 kcal/mol. In test [3], the -TdeltaS worked out at 1.9 kcal/mol.

Source of the values: ChEMBL document CHEMBL6127040, “Discovery and optimization of isoliquiritigenin as a death-associated protein kinase 1 inhibitor” (Eur J Med Chem, 2024).
